Test results published in the NIST ThermoML archive (doi:10.1016/j.jct.2012.03.031).
± gives the expanded uncertainty stated by the source.

Settings: Crystal 1; visual observation

Triple point temperature: 288.43 ± 0.39 K
Compound: CCCCc1ccc(C(=O)Oc2ccc(C#N)c(F)c2)cc1 [4-cyano-3-fluorophenyl 4-butylbenzoate]
